Results on 24 molecules are retold here after patent US7759345B2, “Antitumoral derivatives of ET-743” (priority 2001, dated 2010).

One assay relates to A-549. The assay is described as follows: Inhibition of cell growth by counting cells, A-549. The assay is classed as cell-based, human. Conditions: three days of incubation, read-out: IC50 (molar) A-549. How it is done:
(§1) 1°.—Inhibition of Cell Growth by Counting Cells.
(§2) This form of the assay employs 24 well multidishes of 16 mm diameter (Bergeron, 1984; Schroeder, 1981). The tumor cell lines employed are: P-388 (ATCC CCL 46), suspension culture of a lymphoid neoplasm from a DBA/2 mouse; A-549 (ATCC CCL 185), monolayer culture of a human lung carcinoma; HT-29 (ATCC HTB-38), monolayer culture of a human colon carcinoma; MEL-28 (ATCC HTB-72), monolayer culture of a human melanoma and DU-145 (ATCC HTB-81), monolayer culture of a human prostate carcinoma.
(§3) Cells were maintained, in logarithmic phase of growth in Eagle's Minimum Essential Medium, with Earle's Balanced Salts, with non-essential amino acids, with 2.0 mM L-Glutamine, without sodium bicarbonate (EMEM/neaa), supplemented with 10% Fetal Calf Serum (FCS), 10^−2 M. sodium bicarbonate and 0.1 U/l penicillin G+0.1 g/l streptomycin sulfate. For the experiments, cells are harvested from subconfluent cultures using trypsin and resuspended in fresh medium before plating.
(§4) A-549, HT-29, MEL-28 and DU-145 cells were seeded into 16 mm diameter wells at 1×10^4 cells per well in 1 ml aliquots of EMEM 5% FCS containing different concentrations of the sample to be tested. A separate set of cultures without drug was seeded as control of growth, to ensure that cells remained in exponential phase of growth. All determinations are carrying out in duplicate. After three days of incubation at 37° C., 5% CO2 in a 98% humid atmosphere cells were stained with 0.1% crystal violet. An approximately IC50 was determined by comparing the growth in wells with drug to the growth in wells control.
(§5) For quantifying the activity, after the incubation time, cells are trypsinized and counted in a Coulter Counter ZM. All counts (net cells per well), represent the average of duplicate wells. % G, percent of growth relative to cultures without drug. The results of these assays are used to generate dose-response curves from which more precise IC50 values are determined (sample concentration which produces 50% cell growth inhibition).
(§6) Obtained results may predict the usefulness of a certain drug as a potential cancer treatment. For this technique, compounds which show IC50 values smaller than 1 μg/ml are selected to continue with further studies. IC50's data allow to predict that not only could a drug be cystostatic, but also it could have a potential in terms of tumor reduction.

Another assay has as its system HT-29. The assay is described as follows: Inhibition of cell growth by counting cells, HT-29. Format: cell-based, human. To be noted: three days of incubation, read-out: IC50 (molar) HT-29. How it is done:
as §1, §2, §3, §4, §5, §6

Like-named read-outs stand apart in the source and are kept apart here.

As a reminder, the IC50 is the concentration that gives 50% inhibition. In the case of `COc1cc2c(cc1OC(=O)OCc1ccccc1)CCN[C@]21CS[C@@H]2c3c(OC(C)=O)c(C)c4c(c3[C@H](COC1=O)N1C2[C@H]2c3c(cc(C)c(OC)c3OC(=O)OCc3ccccc3)C[C@@H]([C@@H]1O)N2C)OCO4` (stereo partly drawn) [Compound 85], the IC50 in the assay with A-549 (Homo sapiens, A549, 72 h) was 9.71 nM; in the assay on HT-29 (Homo sapiens, HT-29, 72 h) it was 9.71 nM.

On to `COc1cc2c(cc1OC(=O)OC(C)(C)C)CCN[C@]21CS[C@@H]2c3c(OC(=O)OC(C)(C)C)c(C)c4c(c3[C@H](COC1=O)N1C2[C@H]2c3c(cc(C)c(OC)c3O)C[C@@H]([C@@H]1C#N)N2C)OCO4` (stereo partly drawn) [Compound 108], for which the IC50 in the assay on A-549 (Homo sapiens, A549, 72 h) is 0.108 nM; with HT-29 (Homo sapiens, HT-29, 72 h), 0.108 nM.

In the case of `COc1cc2c(cc1OC(=O)OC(C)(C)C)CCN[C@]21CS[C@@H]2c3c(OC(=O)C(F)(F)F)c(C)c4c(c3[C@H](COC1=O)N1C2[C@H]2c3c(cc(C)c(OC)c3OC(=O)C(F)(F)F)C[C@@H]([C@@H]1C#N)N2C)OCO4` (stereo partly drawn) [Compound 109], the IC50 came out at 0.98 nM in the assay on A-549 (Homo sapiens, A549, 72 h) and 0.98 nM in the assay on HT-29 (Homo sapiens, HT-29, 72 h).

As to `COc1cc2c(cc1OC(=O)OC(C)(C)C)CCN[C@]21CS[C@@H]2c3c(OC(=O)OC(C)(C)C)c(C)c4c(c3[C@H](COC1=O)N1C2[C@H]2c3c(cc(C)c(OC)c3OC(=O)OC(C)(C)C)C[C@@H]([C@@H]1C#N)N2C)OCO4` (stereo partly drawn) [Compound 110], the half-inhibitory concentration (IC50) worked out at 0.0972 nM with A-549 (Homo sapiens, A549, 72 h) and 0.0972 nM in the assay with HT-29 (Homo sapiens, HT-29, 72 h).

Regarding `CCCC(=O)Oc1c(C)c2c(c3c1[C@H]1SC[C@]4(NCCc5cc(OC(=O)OC(C)(C)C)c(OC)cc54)C(=O)OC[C@@H]3N3C1[C@H]1c4c(cc(C)c(OC)c4OC(=O)CCC)C[C@@H]([C@@H]3C#N)N1C)OCO2` (stereo partly drawn) [Compound 112], the IC50 turned out to be 10.3 nM with A-549 (Homo sapiens, A549, 72 h) and 10.3 nM in the assay with HT-29 (Homo sapiens, HT-29, 72 h).

Turning to `COc1cc2c(cc1OC(=O)OC(C)(C)C)CCN[C@]21CS[C@@H]2c3c(OC(=O)/C=C/c4ccccc4)c(C)c4c(c3[C@H](COC1=O)N1C2[C@H]2c3c(cc(C)c(OC)c3OC(=O)/C=C/c3ccccc3)C[C@@H]([C@@H]1C#N)N2C)OCO4` (stereo partly drawn) [Compound 114], the IC50 in the assay on A-549 (Homo sapiens, A549, 72 h) was 9.18 nM; in the assay on HT-29 (Homo sapiens, HT-29, 72 h) it was 9.18 nM.

Take `C=CCOC(=O)Oc1c(C)c2c(c3c1[C@H]1SC[C@]4(NCCc5cc(OC(=O)OC(C)(C)C)c(OC)cc54)C(=O)OC[C@@H]3N3C1[C@H]1c4c(cc(C)c(OC)c4O)C[C@@H]([C@@H]3C#N)N1C)OCO2` (stereo partly drawn) [Compound 115]: the IC50 with A-549 (Homo sapiens, A549, 72 h) was 0.11 nM; in the assay with HT-29 (Homo sapiens, HT-29, 72 h), 0.11 nM.

As for `COc1cc2c(cc1OC(=O)OC(C)(C)C)CCN[C@]21CS[C@@H]2c3c(OC(=O)CCCl)c(C)c4c(c3[C@H](COC1=O)N1C2[C@H]2c3c(cc(C)c(OC)c3O)C[C@@H]([C@@H]1C#N)N2C)OCO4` (stereo partly drawn) [Compound 116], the IC50 in the assay on A-549 (Homo sapiens, A549, 72 h) came out at 0.109 nM; in the assay with HT-29 (Homo sapiens, HT-29, 72 h), 0.109 nM.

Regarding `COc1cc2c(cc1OC(=O)OC(C)(C)C)CCN[C@]21CS[C@@H]2c3c(OC)c(C)c4c(c3[C@H](COC1=O)N1C2[C@H]2c3c(cc(C)c(OC)c3O)C[C@@H]([C@@H]1C#N)N2C)OCO4` (stereo partly drawn) [Compound 126], the half-inhibitory concentration (IC50) in the assay with A-549 and with HT-29 was 0.119 nM in each case.

As to `COc1cc2c(cc1OC(=O)OC(C)(C)C)CCN[C@]21CS[C@@H]2c3c(OC)c(C)c4c(c3[C@H](COC1=O)N1C2[C@H]2c3c(cc(C)c(OC)c3OC)C[C@@H]([C@@H]1C#N)N2C)OCO4` (stereo partly drawn) [Compound 127], the half-maximal inhibitory concentration (IC50) in the assay with A-549 and in the assay with HT-29 was 0.117 nM each time.

On to `CCOc1c(C)c2c(c3c1[C@H]1SC[C@]4(NCCc5cc(OC(=O)OC(C)(C)C)c(OC)cc54)C(=O)OC[C@@H]3N3C1[C@H]1c4c(cc(C)c(OC)c4O)C[C@@H]([C@@H]3C#N)N1C)OCO2` (stereo partly drawn) [Compound 128], for which the IC50 with A-549 (Homo sapiens, A549, 72 h) came out at 1.17 nM; in the assay with HT-29 (Homo sapiens, HT-29, 72 h), 1.17 nM.

On to `CCOc1c(C)c2c(c3c1[C@H]1SC[C@]4(NCCc5cc(OC(=O)OC(C)(C)C)c(OC)cc54)C(=O)OC[C@@H]3N3C1[C@H]1c4c(cc(C)c(OC)c4OCC)C[C@@H]([C@@H]3C#N)N1C)OCO2` (stereo partly drawn) [Compound 129], for which the IC50 in the assay with A-549 (Homo sapiens, A549, 72 h) was determined as 11.3 nM; in the assay on HT-29 (Homo sapiens, HT-29, 72 h), 11.3 nM.

On to `CCCOc1c(C)c2c(c3c1[C@H]1SC[C@]4(NCCc5cc(OC(=O)OC(C)(C)C)c(OC)cc54)C(=O)OC[C@@H]3N3C1[C@H]1c4c(cc(C)c(OC)c4O)C[C@@H]([C@@H]3C#N)N1C)OCO2` (stereo partly drawn) [Compound 130], for which the IC50 amounted to 1.15 nM with A-549 (Homo sapiens, A549, 72 h) and 1.15 nM in the assay on HT-29 (Homo sapiens, HT-29, 72 h).

For the molecule `CCCOc1c(C)c2c(c3c1[C@H]1SC[C@]4(NCCc5cc(OC(=O)OC(C)(C)C)c(OC)cc54)C(=O)OC[C@@H]3N3C1[C@H]1c4c(cc(C)c(OC)c4OCCC)C[C@@H]([C@@H]3C#N)N1C)OCO2` (stereo partly drawn) [Compound 131], the IC50 with A-549 (Homo sapiens, A549, 72 h) came to 110 nM; with HT-29 (Homo sapiens, HT-29, 72 h), 110 nM.

`C=CCOc1c(C)c2c(c3c1[C@H]1SC[C@]4(NCCc5cc(OC(=O)OC(C)(C)C)c(OC)cc54)C(=O)OC[C@@H]3N3C1[C@H]1c4c(cc(C)c(OC)c4O)C[C@@H]([C@@H]3C#N)N1C)OCO2` (stereo partly drawn) [Compound 132]: the IC50 in the assay on A-549 (Homo sapiens, A549, 72 h) was determined as 1.15 nM; with HT-29 (Homo sapiens, HT-29, 72 h), 1.15 nM.

With `C=CCOc1c(C)c2c(c3c1[C@H]1SC[C@]4(NCCc5cc(OC(=O)OC(C)(C)C)c(OC)cc54)C(=O)OC[C@@H]3N3C1[C@H]1c4c(cc(C)c(OC)c4OCC=C)C[C@@H]([C@@H]3C#N)N1C)OCO2` (stereo partly drawn) [Compound 133], the half-inhibitory concentration (IC50) with A-549 (Homo sapiens, A549, 72 h) amounted to 110 nM; in the assay on HT-29 (Homo sapiens, HT-29, 72 h), 110 nM.

With `COc1cc2c(cc1O)CCN[C@]21CS[C@@H]2c3c(OC(=O)/C=C/c4ccccc4)c(C)c4c(c3[C@H](COC1=O)N1C2[C@H]2c3c(cc(C)c(OC)c3OC(=O)/C=C/c3ccccc3)C[C@@H]([C@@H]1C#N)N2C)OCO4` (stereo partly drawn) [Compound 138], the IC50 in the assay with A-549 (Homo sapiens, A549, 72 h) is 1.01 nM; in the assay on HT-29 (Homo sapiens, HT-29, 72 h), 1.01 nM.

With `CCCC(=O)Oc1c(C)c2c(c3c1[C@H]1SC[C@]4(NCCc5cc(O)c(OC)cc54)C(=O)OC[C@@H]3N3C1[C@H]1c4c(cc(C)c(OC)c4O)C[C@@H]([C@@H]3C#N)N1C)OCO2` (stereo partly drawn) [Compound 139], the IC50 was found to be 1.25 nM with A-549 (Homo sapiens, A549, 72 h) and 1.25 nM with HT-29 (Homo sapiens, HT-29, 72 h).

On to `CCCC(=O)Oc1c(C)c2c(c3c1[C@H]1SC[C@]4(NCCc5cc(O)c(OC)cc54)C(=O)OC[C@@H]3N3C1[C@H]1c4c(cc(C)c(OC)c4OC(=O)CCC)C[C@@H]([C@@H]3C#N)N1C)OCO2` (stereo partly drawn) [Compound 140], for which the IC50 with A-549 (Homo sapiens, A549, 72 h) turned out to be 1.15 nM; with HT-29 (Homo sapiens, HT-29, 72 h), 1.15 nM.

Consider `C=CCOC(=O)Oc1c(C)c2c(c3c1[C@H]1SC[C@]4(NCCc5cc(O)c(OC)cc54)C(=O)OC[C@@H]3N3C1[C@H]1c4c(cc(C)c(OC)c4O)C[C@@H]([C@@H]3C#N)N1C)OCO2` (stereo partly drawn) [Compound 141], for which the IC50 with A-549 and in the assay with HT-29 was 0.123 nM throughout.

Turning to `COc1cc2c(cc1O)CCN[C@]21CS[C@@H]2c3c(OC(=O)CCCl)c(C)c4c(c3[C@H](COC1=O)N1C2[C@H]2c3c(cc(C)c(OC)c3O)C[C@@H]([C@@H]1C#N)N2C)OCO4` (stereo partly drawn) [Compound 142], the IC50 turned out to be 1.22 nM with A-549 (Homo sapiens, A549, 72 h) and 1.22 nM in the assay on HT-29 (Homo sapiens, HT-29, 72 h).

In the case of `CCCCCCCC(=O)Oc1c(C)c2c(c3c1[C@H]1SC[C@]4(NCCc5cc(O)c(OC)cc54)C(=O)OC[C@@H]3N3C1[C@H]1c4c(cc(C)c(OC)c4OC(=O)CCCCCCC)C[C@@H]([C@@H]3C#N)N1C)OCO2` (stereo partly drawn) [Compound 145], the IC50 with A-549 (Homo sapiens, A549, 72 h) amounted to 102 nM; in the assay with HT-29 (Homo sapiens, HT-29, 72 h) it was 102 nM.

As to `COc1cc2c(cc1O)CCN[C@]21CS[C@@H]2c3c(OC)c(C)c4c(c3[C@H](COC1=O)N1C2[C@H]2c3c(cc(C)c(OC)c3O)C[C@@H]([C@@H]1C#N)N2C)OCO4` (stereo partly drawn) [Compound 149], the IC50 was found to be 0.135 nM in the assay on A-549 (Homo sapiens, A549, 72 h) and 0.135 nM with HT-29 (Homo sapiens, HT-29, 72 h).

For the molecule `COc1cc2c(cc1O)CCN[C@]21CS[C@@H]2c3c(OC)c(C)c4c(c3[C@H](COC1=O)N1C2[C@H]2c3c(cc(C)c(OC)c3OC)C[C@@H]([C@@H]1C#N)N2C)OCO4` (stereo partly drawn) [Compound 150], the half-inhibitory concentration (IC50) in the assay with A-549 (Homo sapiens, A549, 72 h) came out at 1.32 nM; with HT-29 (Homo sapiens, HT-29, 72 h), 1.32 nM.
